The supplement of paper PMC10307832

Assays:
Assay in all cases: relative viability (nuclei count vs DMSO), 5 days (fraction); higher = more cells survive
NCI-H650 = tested on: NCI-H650
Method in brief: (§1)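 Relative viability divides the nuclei count in treated wells by that in vehicle wells. Lung cancer cell lines were seeded in 1536-well plates, dosed by pin tool the next day, and fixed and stained after 5 days in one step with final 0.05% Triton X-100, 1% formaldehyde and 1 ug/ml Hoechst. Dosing was a single drug or a fixed anchor-drug dose plus five library-drug doses (not always all listed) in √10 steps, and values are medians of duplicate plates imaged at 4×.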

LU99A = tested on: LU99A
Method in brief: as §1

NCI-H2170 = tested on: NCI-H2170
Method in brief: as §1

201T = tested on: 201T
Method in brief: as §1

NCI-H2087 = tested on: NCI-H2087
Method in brief: as §1

EKVX = tested on: EKVX
Method in brief: as §1

NCI-H1437 = tested on: NCI-H1437
Method in brief: as §1

NCI-H2085 = tested on: NCI-H2085
Method in brief: as §1

HCC-827 = tested on: HCC-827
Method in brief: as §1

SW 1573 = tested on: SW 1573
Method in brief: as §1

NCI-H1975 = tested on: NCI-H1975
Method in brief: as §1

## O=c1cc(N2CCOCC2)oc2c(-c3cccc4c3sc3ccccc34)cccc12 + Cc1nc(NC(=O)N2CCC[C@H]2C(N)=O)sc1-c1ccnc(C(C)(C)C(F)(F)F)c1 [Alpelisib] (partner 2 µM)
NCI-H650; first compound 0.01 µM
  relative viability: 1.06
NCI-H650; first compound 0.03162 µM
  relative viability: 1.15
NCI-H650; first compound 0.3162 µM
  relative viability: 1.21
NCI-H650; first compound 1 µM
  relative viability: 1.09
LU99A; first compound 0.01 µM
  relative viability: 0.595
LU99A; first compound 0.03162 µM
  relative viability: 0.532
LU99A; first compound 0.1 µM
  relative viability: 0.521
LU99A; first compound 0.3162 µM
  relative viability: 0.598
LU99A; first compound 1 µM
  relative viability: 0.571
NCI-H2170; first compound 0.01 µM
  relative viability: 0.83
NCI-H2170; first compound 0.03162 µM
  relative viability: 0.782
NCI-H2170; first compound 0.1 µM
  relative viability: 0.837
NCI-H2170; first compound 0.3162 µM
  relative viability: 0.817
NCI-H2170; first compound 1 µM
  relative viability: 0.735
201T; first compound 0.01 µM
  relative viability: 1
201T; first compound 0.03162 µM
  relative viability: 0.994
201T; first compound 0.1 µM
  relative viability: 1.07
201T; first compound 0.3162 µM
  relative viability: 0.979
201T; first compound 1 µM
  relative viability: 0.879
NCI-H2087; first compound 0.01 µM
  relative viability: 1.12
NCI-H2087; first compound 0.03162 µM
  relative viability: 1.02
NCI-H2087; first compound 0.1 µM
  relative viability: 1.13
NCI-H2087; first compound 0.3162 µM
  relative viability: 1.23
NCI-H2087; first compound 1 µM
  relative viability: 1.16
EKVX; first compound 0.01 µM
  relative viability: 0.88
EKVX; first compound 0.03162 µM
  relative viability: 0.868
EKVX; first compound 0.1 µM
  relative viability: 0.883
EKVX; first compound 0.3162 µM
  relative viability: 0.858
EKVX; first compound 1 µM
  relative viability: 0.824
NCI-H1437; first compound 0.01 µM
  relative viability: 0.931
NCI-H1437; first compound 0.03162 µM
  relative viability: 0.937
NCI-H1437; first compound 0.1 µM
  relative viability: 1.02
NCI-H1437; first compound 0.3162 µM
  relative viability: 0.993
NCI-H1437; first compound 1 µM
  relative viability: 0.95
NCI-H2085; first compound 0.01 µM
  relative viability: 0.941
NCI-H2085; first compound 0.03162 µM
  relative viability: 0.902
NCI-H2085; first compound 0.1 µM
  relative viability: 1.02
NCI-H2085; first compound 0.3162 µM
  relative viability: 0.919
NCI-H2085; first compound 1 µM
  relative viability: 0.983
HCC-827; first compound 0.01 µM
  relative viability: 0.918
HCC-827; first compound 0.03162 µM
  relative viability: 0.931
HCC-827; first compound 0.1 µM
  relative viability: 0.911
HCC-827; first compound 0.3162 µM
  relative viability: 0.947
HCC-827; first compound 1 µM
  relative viability: 0.914
SW 1573; first compound 0.01 µM
  relative viability: 1.13
SW 1573; first compound 0.03162 µM
  relative viability: 0.736
SW 1573; first compound 0.1 µM
  relative viability: 0.868
SW 1573; first compound 0.3162 µM
  relative viability: 0.735
SW 1573; first compound 1 µM
  relative viability: 0.733
NCI-H1975; first compound 0.01 µM
  relative viability: 0.619
NCI-H1975; first compound 0.03162 µM
  relative viability: 0.623
